# Assay results as given in patent US20190328665A1, “LIPOSOME COMPOSITIONS ENCAPSULATING MODIFIED CYCLODEXTRIN COMPLEXES AND USES THEREOF” (priority 2014, published 2019).
# Experiments:
# [1] = Remote loading of cyclodextrin-encapsulated dyes/drugs into liposomes; type: physicochemical
# Method: (§1) Equimolar quantities of the drug (0.1 mmol; 30-50 mg) and appropriate cyclodextrin ([…]; 110-185 mg) were dissolved separately in methanol (nearly saturated; ˜1-2 mL) and deionized water (˜10-20 mg/mL), respectively. The methanolic solution of the drug was then added dropwise into the cyclodextrin solution with agitation ensuring a uniform suspension. This suspension was then shaken at 55° C. for 36-48 hours using an Eppendorf Thermomixer R. The solution was filtered to remove particulate matter and flash frozen in a dry ice/acetone bath followed by lyophilization. The lyophilized complex was stored at −20° C. until further use.
# The lyophilized powder complex described above was pulverized and incubated with appropriate liposomal solutions (30-40 mg drug equivalent in 6 mL liposomal solution, to achieve loading ratios of 5-8 mg/mL concentrations) for 1 hour at 65° C. They were centrifuged at 1,000×g for 3 minutes to remove particulate matter and then dialyzed against 300 mM sucrose or commercial PBS solution (pH 7.4) overnight to remove material that had not been loaded into the liposomes. The size distributions of the liposomal formulations were characterized using the Malvem ZS90 instrument described above.
# The liposomal solution was dialyzed against PBS overnight.
# Organic dyes (coumarins) were used to determine whether the modified cyclodextrins could encapsulate and transport hydrophobic compounds across the liposome bilayer. […] It was determined that the most efficient and convenient way to encapsulate the coumarins was by freeze drying (Cao et al. (2005) Drug Dev. Industr. Pharm. 31:747-756; Badr-Eldin et al. (2008) Eur. J. Pharm. Biopharm. 70:819-827). […] Following overnight dialysis to remove unincorporated complexes, the liposomes were subsequently disrupted with methanol and the coumarin fluorescence measured. As shown by fluorescence spectroscopy, all cyclodextrin-dye complexes were incorporated into liposomes with high efficiency (>95%; FIG. 5). […]
# [2] = Passive loading of BI-2536 into liposomes; type: physicochemical
# Method: Method 1: Encapsulation of BI-2536 in the lipid layer. Hydrogenated egg phosphatidylcholine (Avanti Polar Lipids), cholesterol, and DSPE-PEG2000 (Avanti Polar Lipids) (molar ratios 50:45:5) were dissolved in chloroform (20 mL). Ten milligrams of BI-2536 (in 1 mL chloroform) was added and the solvent was evaporated to generate a thin film. One milliliter of PBS (pH 7.4) was added to hydrate the lipid layer, and the mixture was shaken at 50° C. for 2 hours as described above. The vesicle suspension was sonicated for 30 min and then extruded successively through 0.4-, 0.2-, and 0.1-μm polycarbonate membranes (Whatman; Nuclepore Track-Etched Membrane) at 50° C. to obtain the final liposomes with low polydispersity at the desired size. The liposomes were then dialyzed in PBS overnight to remove unentrapped drug. The average size and polydispersity index were then measured by dynamic light-scattering experiments on a Malvem Z90. Drug content was calculated by rupturing the liposomes with an equal volume of methanol and measuring the UV-vis absorbance on a NanoDrop 1000.
# Method 2: Hydration of the lipid layer with an aqueous formulation of BI-2536. Hydrogenated egg phosphatidylcholine (Avanti Polar Lipids), cholesterol, and DSPE-PEG2000 (Avanti Polar Lipids) (molar ratios 50:45:5) were dissolved in chloroform (20 mL), and the solvent was evaporated in vacuo to generate a thin film. One milliliter of aqueous BI-2536 (4 mg; pH 5.5) was added to hydrate the lipid layer, and the mixture was shaken at 50° C. for 2 hours as described above. The vesicle suspension was sonicated for 30 minutes and then extruded successively through 0.4-, 0.2-, and 0.1-μm polycarbonate membranes (Whatman; Nuclepore Track-Etched Membrane) at 50° C. to obtain the final liposomes with low polydispersity at the desired size. The liposomes were then dialyzed against PBS overnight to remove unentrapped drug. The average size and polydispersity index were then measured by dynamic light-scattering experiments on a Malvem Z90. Drug content was calculated by rupturing the liposomes with an equal volume of methanol and measuring the UV-vis absorbance on a NanoDrop 1000.
# The cyclodextrin-based loading method was also compared with the most common approaches to entrapping hydrophobic and insoluble agents in liposomes. First, direct entrapment of BI-2536 in the lipid bilayer was attempted. BI-2536 was co-evaporated with hydrogenated egg phosphatidylcholine-cholesterol-1,2-distearoyl-sn-glycero-3-phosphoethanolamine-N-[methoxy(polyethylene glycol)-2000 (DSPE-PEG 2000) to prepare a thin film, which was subsequently hydrated with 1 mL PBS and extruded through a 100-nm polycarbonate membrane at 700 psi to prepare small, unilamellar vesicles (average particle size (Zavg) 126 nm; PDI 0.09). Upon overnight dialysis against PBS to remove unentrapped drug, the drug-containing liposomes rapidly swelled (Zavg 539 nm; PDI 0.49) and released nearly 90% of the entrapped drug. Second, the lipid film was hydrated with an aqueous formulation of BI-2536 (passive loading). Hydration of the lipid film, followed by extrusion and dialyses, led to stable liposomes. However, the encapsulation efficiency was <10%, 20-fold less than achievable with the modified cyclodextrins described herein.
# HCT116 xenografts = assay: HCT116 subcutaneous xenograft tumor growth; type: in vivo, nude mice
# Method: (§2) Tumor volume was recorded every 48 hours.
# in vivo = conditions: female, athymic nu/nu, mouse, iv
# [3] = system: HCT116 cells with genetically inactivated TP53 alleles; assay: Xenograft of HCT116 cells with genetically inactivated TP53 alleles; design: species or system nude mice; conditions: mouse, in vivo
# Method: as §2
# physchem = type: physicochemical; conditions: for solubility: water
# Method: as §1
# Organic dyes (coumarins) were used to determine whether the modified cyclodextrins could encapsulate and transport hydrophobic compounds across the liposome bilayer. Coumarins are very hydrophobic and a dramatic improvement in aqueous solubility was observed after they were encapsulated into 6′-mono-ethylenediamino-6′-deoxy-cyclodextrin (compound III). It was determined that the most efficient and convenient way to encapsulate the coumarins was by freeze drying (Cao et al. (2005) Drug Dev. Industr. Pharm. 31:747-756; Badr-Eldin et al. (2008) Eur. J. Pharm. Biopharm. 70:819-827). […] Once dissolved, the cyclodextrin-coumarin complexes were incubated with pre-formed liposomes exactly as described above, using a pH gradient to drive the compounds across the bilayer. Following overnight dialysis to remove unincorporated complexes, the liposomes were subsequently disrupted with methanol and the coumarin fluorescence measured. As shown by fluorescence spectroscopy, all cyclodextrin-dye complexes were incorporated into liposomes with high efficiency (>95%; FIG. 5). […] The incorporation of coumarin dyes into liposomes was easily discerned by the naked eye, as the coumarin-cyclodextrin liposomes were bright yellow, whereas control liposomes (made without cyclodextrins, for example) were colorless (FIGS. 5A-5C).
# [4] = mouse, in vivo, iv, 100 mg/kg
# [5] = Phase II / Phase 2 trials; cited from earlier work
# RKO xenografts = assay: RKO xenograft tumor growth; type: in vivo, nude mice; conditions: free drug 150 mg/kg
# Method: as §2
# With the free drug, severe acute toxicity was evident. In previous studies, the free drug was administered by oral gavage, because its solubility is not sufficient for intravenous dosing.
# [6] = mouse, in vivo, iv
# Method: Coumarin 334 was used as a drug surrogate to assess biodistribution and pharmacokinetics of cyclodextrin-encapsulated liposomes. […] Female athymic nu/nu mice bearing HCT116 subcutaneous xenografts were used in the study following a modified protocol described in Macdiarmid et al. (2007) Cancer Cell 11:431-445. When the tumor volumes reached 400-600 mm^3, 12 mice were treated intravenouslys (i.v.) with 200 μL cyclodextrin-encapsulated, liposomal (CYCL-)coumarin 334 (0.5 mg/mL). Posttreatment, four mice were euthanized at time points 2, 24, and 48 hours and tumor, spleen, liver, kidneys, heart, and lungs were excised and weighed. Blood was also collected, and plasma was separated and stored at 4° C. Except for plasma, each frozen tissue was homogenized and sonicated in 0.9% saline [3×volume (μL) of tissue mass (mg)]. […] The samples were centrifuged (6,000×g for 10 minutes) and the fluorescence in the supematants was measured by a CytoFluor II fluorescence multiwall plate reader (Applied Biosystems) using excitation 485 nm/emission 530 nm. […]
# To establish biodistribution and pharmacokinetics of the CYCL liposomes, liposomes loaded with coumarin 334 encapsulated in cyclodextrin VI were used to treat HCT116-bearing mice by intravenous (i.v.) injection. Samples from major tissues harvested at 2, 24, and 48 hours post-treatment were analyzed for their fluorescence.
# [7] = direct entrapment in lipid bilayer, after extrusion
# [8] = direct entrapment in lipid bilayer, after overnight dialysis against PBS
molecule,measurement,setting,value
"6′,6′,6′,6′,6′,6′,6′-heptakis-succinyl-β-cyclodextrin [IX]","liposome loading of PD-0325901 among cyclodextrins VI, VII, VIII, IX",[1]; acidic or basic liposomes,best liposome loading
CC[C@@H]1C(=O)N(C)c2cnc(Nc3ccc(C(=O)NC4CCN(C)CC4)cc3OC)nc2N1C1CCCC1 [BI-2536],PDI,[2]; [7],0.09
same,average particle size (Zavg),[2]; [7],126 nm
same,PDI,[2]; [8],0.49
same,average particle size (Zavg),[2]; [8],539 nm
same,entrapped drug released,"[2]; direct entrapment in lipid bilayer, overnight dialysis against PBS",~90%
same,encapsulation efficiency relative to modified cyclodextrins (fold less),[2]; passive loading,20 fold
same,encapsulation efficiency,[2]; passive loading: lipid film hydrated with aqueous BI-2536,< 10%
same,tumor regressions,"HCT116 xenografts; mouse, in vivo",not with free drug
same,slowing of tumor growth,HCT116 xenografts; two i.v. doses of 100 mg/kg,~30%
same,MTD,in vivo,100 mg/kg
same,tumor regressions,[3],not with free drug
same,effect of aminated cyclodextrins V and VI on aqueous solubility,physchem,dramatically improved
same,solubility,physchem,500 µg/mL
same,acute toxicity / survival,[4],"somewhat lethargic immediately after drug administration, but survived"
same,toxicity in clinical trials,[5],unacceptable toxicity (grade 4 neutropenia) at sub-therapeutic doses
O=C(NOC[C@H](O)CO)c1ccc(F)c(F)c1Nc1ccc(I)cc1F [PD-0325901],increase in solubility after encapsulation into cyclodextrins,physchem,~40 fold
same,solubility,physchem,100 µg/mL
same,toxicity in clinical trials,[5],retinal vein occlusion (RVO)
same,slowing of tumor growth,RKO xenografts,~5%
CCOC(=O)c1cc2cc3c4c(c2oc1=O)CCCN4CCC3 [coumarin 314],loading efficiency when encapsulated in unionizable native β-cyclodextrin,[1]; citrate liposomes,only marginally improved the loading efficiency
same,loading into liposomes in the absence of cyclodextrins,"[1]; citrate liposomes, identical conditions",poorly incorporated into liposomes
CC(=O)c1cc2cc3c4c(c2oc1=O)CCCN4CCC3 [coumarin 334],persistence in blood and tumor,[6],persisted in the blood and tumor
same,tissue clearance,[6],cleared from most of the tissues examined
